Experimental data reported in patent publication US4335249A, “Herbicidal diphenyl ethers, sulfides, sulfoxides and sulfones” (Rohm and Haas Company, priority 1976, dated 1982).

Experiments:
Assay type in all cases: in vivo
[1] = tested on: barnyardgrass (Echinochloa crusgalli); experiment: Postemergence herbicidal activity, barnyardgrass; conditions: Post
Protocol: (§1) Using the procedure described below, compounds of the invention are evaluated for control of several of the following plant species:
(§2) The following est procedure is employed. Seeds of selected crops and weeds are planted in soil in flats. For preemergence tests, the flats are treated with the test compound immediately after the planting. For postemergence tests, the seeds are allowed to germinate, and after two weeks the flats are treated with the test compound. The compound to be evaluated is dissolved in acetone, diluted with water, and sprayed over the flats using a carrier volume equivalent to 50 gallons per acre at the rate of application (pounds per acre, lb/A.) specified in the tables.

[2] = tested on: morningglory (Ipomoca spp.); experiment: Preemergence herbicidal activity, morningglory
Protocol: as §1
as §2, with “tables. About two weeks after the application of the test compound, the state of growth of the plants is observed and the phytotoxic effect of the compound is evaluated. Tables III and IV give the average percent control achieved by test compounds in terms of the percent of the plants which are killed by the compounds.” for “tables.”

foxtail (Setaria spp.) [3] = experiment: Postemergence herbicidal activity, foxtail; conditions: Post
Protocol: as §1
as §2, with “tables. About two weeks after the application of the test compound, the state of growth of the plants is observed and the phytotoxic effect of the compound is evaluated. Tables III and IV give the average percent control achieved by test compounds in terms of the percent of the plants which are killed by the compounds.” for “tables.”

[4] = tested on: cocklebur (Xanthium pensylvanicum); experiment: Postemergence herbicidal activity, cocklebur
Protocol: as §1
as §2, with “tables. About two weeks after the application of the test compound, the state of growth of the plants is observed and the phytotoxic effect of the compound is evaluated. Tables III and IV give the average percent control achieved by test compounds in terms of the percent of the plants which are killed by the compounds.” for “tables.”

[5] = tested on: barnyardgrass (Echinochloa crusgalli); experiment: Preemergence herbicidal activity, barnyardgrass; conditions: Pre
Protocol: as §1, §2

[6] = tested on: downybrome (Bromus tectorum); experiment: Preemergence herbicidal activity, downybrome; conditions: Pre
Protocol: as §1
as §2, with “tables. About two weeks after the application of the test compound, the state of growth of the plants is observed and the phytotoxic effect of the compound is evaluated. Tables III and IV give the average percent control achieved by test compounds in terms of the percent of the plants which are killed by the compounds.” for “tables.”

marigold (Tagetes spp.) [7] = experiment: Postemergence herbicidal activity, marigold
Protocol: as §1
as §2, with “tables. About two weeks after the application of the test compound, the state of growth of the plants is observed and the phytotoxic effect of the compound is evaluated. Tables III and IV give the average percent control achieved by test compounds in terms of the percent of the plants which are killed by the compounds.” for “tables.”

[8] = tested on: morningglory (Ipomoca spp.); experiment: Postemergence herbicidal activity, morningglory
Protocol: as §1
as §2, with “tables. About two weeks after the application of the test compound, the state of growth of the plants is observed and the phytotoxic effect of the compound is evaluated. Tables III and IV give the average percent control achieved by test compounds in terms of the percent of the plants which are killed by the compounds.” for “tables.”

[9] = tested on: downybrome (Bromus tectorum); experiment: Postemergence herbicidal activity, downybrome; conditions: Post
Protocol: as §1
as §2, with “tables. About two weeks after the application of the test compound, the state of growth of the plants is observed and the phytotoxic effect of the compound is evaluated. Tables III and IV give the average percent control achieved by test compounds in terms of the percent of the plants which are killed by the compounds.” for “tables.”

[10] = tested on: tomato (Lycopersicon esculentum); experiment: Postemergence herbicidal activity, tomato; conditions: Post
Protocol: as §1
as §2, with “tables. About two weeks after the application of the test compound, the state of growth of the plants is observed and the phytotoxic effect of the compound is evaluated. Tables III and IV give the average percent control achieved by test compounds in terms of the percent of the plants which are killed by the compounds.” for “tables.”

[11] = tested on: tomato (Lycopersicon esculentum); experiment: Preemergence herbicidal activity, tomato; conditions: Pre
Protocol: as §1
as §2, with “tables. About two weeks after the application of the test compound, the state of growth of the plants is observed and the phytotoxic effect of the compound is evaluated. Tables III and IV give the average percent control achieved by test compounds in terms of the percent of the plants which are killed by the compounds.” for “tables.”

[12] = tested on: velvetleaf (Abutilon theophrasti); experiment: Preemergence herbicidal activity, velvetleaf; conditions: Pre
Protocol: as §1
as §2, with “tables. About two weeks after the application of the test compound, the state of growth of the plants is observed and the phytotoxic effect of the compound is evaluated. Tables III and IV give the average percent control achieved by test compounds in terms of the percent of the plants which are killed by the compounds.” for “tables.”

[13] = tested on: cocklebur (Xanthium pensylvanicum); experiment: Preemergence herbicidal activity, cocklebur
Protocol: as §1
as §2, with “tables. About two weeks after the application of the test compound, the state of growth of the plants is observed and the phytotoxic effect of the compound is evaluated. Tables III and IV give the average percent control achieved by test compounds in terms of the percent of the plants which are killed by the compounds.” for “tables.”

wild oats (Avena fatua) [14] = experiment: Preemergence herbicidal activity, wild oats; conditions: Pre
Protocol: as §1
as §2, with “tables. About two weeks after the application of the test compound, the state of growth of the plants is observed and the phytotoxic effect of the compound is evaluated. Tables III and IV give the average percent control achieved by test compounds in terms of the percent of the plants which are killed by the compounds.” for “tables.”

marigold (Tagetes spp.) [15] = experiment: Preemergence herbicidal activity, marigold
Protocol: as §1
as §2, with “tables. About two weeks after the application of the test compound, the state of growth of the plants is observed and the phytotoxic effect of the compound is evaluated. Tables III and IV give the average percent control achieved by test compounds in terms of the percent of the plants which are killed by the compounds.” for “tables.”

wild oats (Avena fatua) [16] = experiment: Postemergence herbicidal activity, wild oats; conditions: Post
Protocol: as §1
as §2, with “tables. About two weeks after the application of the test compound, the state of growth of the plants is observed and the phytotoxic effect of the compound is evaluated. Tables III and IV give the average percent control achieved by test compounds in terms of the percent of the plants which are killed by the compounds.” for “tables.”

[17] = tested on: yellow nutsedge (Cyperus esculentus); experiment: Postemergence herbicidal activity, yellow nutsedge
Protocol: as §1
as §2, with “tables. About two weeks after the application of the test compound, the state of growth of the plants is observed and the phytotoxic effect of the compound is evaluated. Tables III and IV give the average percent control achieved by test compounds in terms of the percent of the plants which are killed by the compounds.” for “tables.”

[18] = tested on: yellow nutsedge (Cyperus esculentus); experiment: Preemergence herbicidal activity, yellow nutsedge
Protocol: as §1
as §2, with “tables. About two weeks after the application of the test compound, the state of growth of the plants is observed and the phytotoxic effect of the compound is evaluated. Tables III and IV give the average percent control achieved by test compounds in terms of the percent of the plants which are killed by the compounds.” for “tables.”

foxtail (Setaria spp.) [19] = experiment: Preemergence herbicidal activity, foxtail; conditions: Pre
Protocol: as §1
as §2, with “tables. About two weeks after the application of the test compound, the state of growth of the plants is observed and the phytotoxic effect of the compound is evaluated. Tables III and IV give the average percent control achieved by test compounds in terms of the percent of the plants which are killed by the compounds.” for “tables.”

[20] = tested on: velvetleaf (Abutilon theophrasti); experiment: Postemergence herbicidal activity, velvetleaf
Protocol: as §1, §2

For `CC(Oc1ccc(Oc2ccc(C(F)(F)F)cc2Cl)cc1)C(=O)O` (stereo not shown) [Example 13], the “% control, Barnyardgrass” value ([1]; 2 lb/A) was 100%, the “% control, Morningglory” value ([2]; Pre, 2 lb/A) was 0% and the “% control, Foxtail” value (foxtail (Setaria spp.) [3]; 2 lb/A) was 90%. The “% control, Cocklebur” value ([4]; Post, 2 lb/A) was 0%, the “% control, Barnyardgrass” value ([5]; 2 lb/A) was 100% and the “% control, Downybrome” value ([6]; 2 lb/A) was 70%. The “% control, Marigold” value (marigold (Tagetes spp.) [7]; Post, 2 lb/A) was 0%, the “% control, Morningglory” value ([8]; Post, 2 lb/A) was 0% and the “% control, Downybrome” value ([9]; 2 lb/A) was 20%. For the same compound, the “% control, Tomato” value ([10]; 2 lb/A) was 0%, the “% control, Tomato” value ([11]; 2 lb/A) was 0% and the “% control, Velvetleaf” value ([12]; 2 lb/A) was 0%. For the same compound, the “% control, Cocklebur” value ([13]; Pre, 2 lb/A) was 0%, the “% control, Wild oat” value (wild oats (Avena fatua) [14]; 2 lb/A) was 70% and the “% control, Marigold” value (marigold (Tagetes spp.) [15]; Pre, 2 lb/A) was 0%. The “% control, Wild oat” value (wild oats (Avena fatua) [16]; 2 lb/A) was 60%, the “% control, Nutsedge” value ([17]; Post, 2 lb/A) was 0% and the “% control, Nutsedge” value ([18]; Pre, 2 lb/A) was 0%. For the same compound, the “% control, Foxtail” value (foxtail (Setaria spp.) [19]; 2 lb/A) was 100% and the “% control, Velvetleaf” value ([20]; Post, 2 lb/A) was 0%.

`CCOC(=O)C(C)Oc1ccc([S+]([O-])c2ccc(C(F)(F)F)cc2)cc1` (stereo not shown) [Example 51] showed a pest or weed control at 4483.4 g/ha ([1]; Echinochloa crus-galli, post-emergence, 336 h, 4 lb/A) of 20%, a pest or weed control at 4483.4 g/ha ([2]; Ipomoea, pre-emergence, 336 h, 4 lb/A) of 0% and a pest or weed control at 4483.4 g/ha (foxtail (Setaria spp.) [3]; Setaria, post-emergence, 336 h, 4 lb/A) of 0%. For the same compound, the pest or weed control at 4483.4 g/ha ([4]; Xanthium strumarium, post-emergence, 336 h, 4 lb/A) was 0%, the pest or weed control at 4483.4 g/ha ([5]; Echinochloa crus-galli, pre-emergence, 336 h, 4 lb/A) was 0% and the pest or weed control at 4483.4 g/ha ([6]; Bromus tectorum, pre-emergence, 336 h, 4 lb/A) was 0%. For the same compound, the pest or weed control at 4483.4 g/ha (marigold (Tagetes spp.) [7]; post-emergence, 336 h, 4 lb/A) was 0%, the pest or weed control at 4483.4 g/ha ([8]; Ipomoea, post-emergence, 336 h, 4 lb/A) was 0% and the pest or weed control at 4483.4 g/ha ([9]; Bromus tectorum, post-emergence, 336 h, 4 lb/A) was 0%. It also gave a pest or weed control at 4483.4 g/ha ([10]; Solanum lycopersicum, post-emergence, 336 h, 4 lb/A) of 0%, a pest or weed control at 4483.4 g/ha ([11]; Solanum lycopersicum, pre-emergence, 336 h, 4 lb/A) of 0% and a pest or weed control at 4483.4 g/ha ([12]; Abutilon theophrasti, pre-emergence, 336 h, 4 lb/A) of 0%. It also gave a pest or weed control at 4483.4 g/ha ([13]; Xanthium strumarium, pre-emergence, 336 h, 4 lb/A) of 0%, a pest or weed control at 4483.4 g/ha (wild oats (Avena fatua) [14]; Avena fatua, pre-emergence, 336 h, 4 lb/A, read-out: % control, Wild oat) of 0% and a pest or weed control at 4483.4 g/ha (marigold (Tagetes spp.) [15]; pre-emergence, 336 h, 4 lb/A) of 0%. The pest or weed control at 4483.4 g/ha (wild oats (Avena fatua) [16]; Avena fatua, post-emergence, 336 h, 4 lb/A, read-out: % control, Wild oat) was 20%, the pest or weed control at 4483.4 g/ha ([17]; Cyperus, post-emergence, 336 h, 4 lb/A) was 0% and the pest or weed control at 4483.4 g/ha ([18]; Cyperus, pre-emergence, 336 h, 4 lb/A) was 0%. It also gave a pest or weed control at 4483.4 g/ha (foxtail (Setaria spp.) [19]; Setaria, pre-emergence, 336 h, 4 lb/A) of 0% and a pest or weed control at 4483.4 g/ha ([20]; Abutilon theophrasti, post-emergence, 336 h, 4 lb/A) of 0%.
